# Measured values taken from US20130102081A1, “Detection and Characterization of Protein Degradation, Protein Degradation Modulation and Protein Degradation Modulators” (priority 2011, published 2013).
# Target: T1, trypsin (Bos taurus, UniProt P00760)
# T1 construct: gene PRSS1
# T1 sequence (P00760 24-246): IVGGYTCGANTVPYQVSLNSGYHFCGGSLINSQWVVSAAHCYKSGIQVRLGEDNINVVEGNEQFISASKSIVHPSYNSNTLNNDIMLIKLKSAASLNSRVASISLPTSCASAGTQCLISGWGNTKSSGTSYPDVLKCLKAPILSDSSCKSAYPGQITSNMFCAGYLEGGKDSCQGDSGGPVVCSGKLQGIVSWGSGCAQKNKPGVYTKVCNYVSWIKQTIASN
# Assay: EMR spectroscopy of spin-labeled BSA degradation by the protease trypsin, with and without modulators
# Format: biochemical
# Details: EMR peak height versus time, compared with protease alone
# Excerpt: The spin label is attached to a protein and the control or un-degraded protein EMR spectrum recorded. Degradation of the protein by any degradation mechanism creates products with predictably different angular mobility than that of the control. […] Degradation is further characterized through quantitative analysis of the product and reactant subpopulations. Modulation of that degradation, regardless of the mechanism of modulation, can be expressed in a variety of ways, only one of which is an alteration in concentration of the degradation subpopulations. For example, inhibition of degradation is expressed by a reduction in concentration of relatively mobile subpopulation(s), degradation promotion by an increase in the mobile subpopulation. Chemical, biochemical and biological entities are readily tested for their potential as modulators.
# Shown are EMR spectra of spin-labeled bovine serum albumin (BSA, spin label attached to BSA under conditions which favor attachment to a sulfhydryl). Key features of the intact protein's spectrum are denoted by the numbers 1 and 5. At 7, 21 and 40 minutes (spectra 2, 3 and 4 respectively) following the addition of the protease, trypsin, a second, more mobile, product population appears, characterized by three, relatively sharp peaks superimposed on the spectrum of the intact protein. Protein degradation is clearly expressed with products expressing more rapid angular mobility than reactants. Both reactant and product subpopulations are apparent in the spectra with the growth of the product population matched by a concomitant loss of reactants. Subpopulation spectra are amenable to further analyses in accord with practices associated with the selected observation method.
# Shown are four EMR spectra (6, 7, 8, 9) for conditions identical to those in FIG. 1 of 5 with the exception that trypsin inhibitor is present. The presence and action of the modulator is clear and unambiguous.
# Shown is the concentration of products, as reflected in the heights of the rightmost peaks labeled 1, 2, 3, and 4 in FIG. 1 of 5, versus time. […]
row,Molecule,modulation of protein degradation (time course of appearance of the mobile product subpopulation)
1,leupeptin hemisulfate,Modulation of protein degradation is clear
2,CC(C)C[C@H](NC(=O)[C@@H](NC(=O)N[C@@H](Cc1ccccc1)C(=O)O)[C@@H]1CCN=C(N)N1)C(=O)N[C@H](C=O)Cc1ccccc1 [chymostatin],Modulation of protein degradation is clear
3,Cc1c(O)cccc1C(=O)N[C@@H](CSc1ccccc1)[C@H](O)CN1C[C@H]2CCCC[C@H]2C[C@H]1C(=O)NC(C)(C)C [Nelfinavir],promotion of degradation
